Assays:
[1] = tested on: MCF-7 cells; experiment: Cell Growth Inhibition, MCF-7 (CellTiterGlo, 6 days); type: cell-based; details: MCF-7, 6-day treatment, CellTiterGlo 2.0
Outline: (§1)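 Compounds were run in half-log series, usually 10–10,000 nM, with 500 cells/well of OVCAR-3 or MCF-7 in RPMI plus 10% FBS. After a 6-day culture at 37 °C, viability was read by CellTiterGlo luminescence. Inhibition relative to control was fitted (four-parameter, variable slope) for IC50.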

[2] = tested on: OVCAR-3 cells; experiment: Cell Growth Inhibition, OVCAR-3 (CellTiterGlo, 6 days); type: cell-based; details: OVCAR-3, 6-day treatment, CellTiterGlo 2.0
Outline: as §1

[3] = target: CDK1/Cyclin B1 (Homo sapiens (Human), UniProt P06493); experiment: CDK1/Cyclin B1 ADP-Glo Kinase Assay; type: biochemical; details: 80 uM ATP
Sequence of CDK1/Cyclin B1 (P06493 whole entry): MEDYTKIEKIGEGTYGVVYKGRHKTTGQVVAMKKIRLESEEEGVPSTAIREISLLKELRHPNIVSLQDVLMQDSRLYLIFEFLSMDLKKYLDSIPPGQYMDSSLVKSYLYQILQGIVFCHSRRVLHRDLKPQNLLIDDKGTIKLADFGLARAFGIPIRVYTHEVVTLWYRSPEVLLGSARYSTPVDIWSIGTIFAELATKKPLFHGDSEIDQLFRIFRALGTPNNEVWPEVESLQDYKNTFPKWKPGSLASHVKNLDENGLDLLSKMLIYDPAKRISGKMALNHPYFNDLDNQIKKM
Sequence of CDK1/Cyclin B1 (P14635 whole entry partner): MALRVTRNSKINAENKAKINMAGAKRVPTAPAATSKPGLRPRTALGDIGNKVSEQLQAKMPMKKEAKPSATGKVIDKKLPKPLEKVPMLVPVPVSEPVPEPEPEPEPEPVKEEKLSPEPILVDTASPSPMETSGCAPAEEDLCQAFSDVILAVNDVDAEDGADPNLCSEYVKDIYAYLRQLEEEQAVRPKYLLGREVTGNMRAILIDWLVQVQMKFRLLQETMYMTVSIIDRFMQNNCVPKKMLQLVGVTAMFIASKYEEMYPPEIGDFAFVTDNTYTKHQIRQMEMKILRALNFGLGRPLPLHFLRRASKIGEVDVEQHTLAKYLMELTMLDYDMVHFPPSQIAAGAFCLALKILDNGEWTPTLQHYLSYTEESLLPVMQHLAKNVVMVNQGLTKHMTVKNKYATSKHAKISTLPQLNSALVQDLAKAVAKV
Outline: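 Luminescent ADP-Glo detection of ADP produced over 90 min at room temperature. Enzyme complex 4.917 nM, pre-exposed 30 min to inhibitor; ATP 80 µM (near Km 78.6 µM), substrate 0.75 µM, HEPES pH 7.5, 2% DMSO. Fractional velocity fitted to 4-parameter IC50 equation.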

[4] = target: CDK4/Cyclin D1 (Homo sapiens (Human), UniProt P11802); experiment: CDK4/Cyclin D1 CHEF Assay (AQT0258 peptide); type: biochemical; details: 200 uM ATP, read-out: CDK4/ CyclinD1 AQT IC50
Sequence of CDK4/Cyclin D1 (P11802 whole entry): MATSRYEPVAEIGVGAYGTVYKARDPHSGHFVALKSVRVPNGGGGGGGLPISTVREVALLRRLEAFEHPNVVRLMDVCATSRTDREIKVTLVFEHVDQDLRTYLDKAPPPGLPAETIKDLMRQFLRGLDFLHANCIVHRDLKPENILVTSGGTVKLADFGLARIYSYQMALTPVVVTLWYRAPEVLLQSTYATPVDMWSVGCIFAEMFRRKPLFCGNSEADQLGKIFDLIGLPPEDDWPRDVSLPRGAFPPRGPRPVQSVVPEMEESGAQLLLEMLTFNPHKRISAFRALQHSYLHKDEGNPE
Sequence of CDK4/Cyclin D1 (P24385 whole entry partner): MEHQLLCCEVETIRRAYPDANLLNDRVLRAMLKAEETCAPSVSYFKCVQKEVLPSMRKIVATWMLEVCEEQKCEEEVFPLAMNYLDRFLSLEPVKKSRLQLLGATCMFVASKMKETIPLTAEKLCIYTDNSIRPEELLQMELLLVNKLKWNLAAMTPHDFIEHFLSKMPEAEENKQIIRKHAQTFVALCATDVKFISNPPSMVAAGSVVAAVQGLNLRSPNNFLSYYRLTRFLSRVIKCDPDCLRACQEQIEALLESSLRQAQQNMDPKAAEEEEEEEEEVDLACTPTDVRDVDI
Outline: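 CDK4/Cyclin D1 (2.5 nM) phosphorylating 10 uM Sox-labelled peptide AQT0258 with 200 uM ATP (Km 195.2 uM), 10 mM MgCl2, 2% DMSO, 54 mM HEPES pH 7.5. Enzyme and inhibitor pre-incubated 30 min, reaction 3 hrs at 22° C.; CHEF fluorescence (ex 360/em 485 nm), IC50 from fractional velocity, 4-parameter fit.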

[5] = target: CDK6/Cyclin D3 (Homo sapiens (Human), UniProt Q00534); experiment: CDK6/Cyclin D3 ADP-Glo Kinase Assay; type: biochemical; details: 100 uM ATP, read-out: CDK6/ CyclinD3 IC50
Sequence of CDK6/Cyclin D3 (Q00534 whole entry): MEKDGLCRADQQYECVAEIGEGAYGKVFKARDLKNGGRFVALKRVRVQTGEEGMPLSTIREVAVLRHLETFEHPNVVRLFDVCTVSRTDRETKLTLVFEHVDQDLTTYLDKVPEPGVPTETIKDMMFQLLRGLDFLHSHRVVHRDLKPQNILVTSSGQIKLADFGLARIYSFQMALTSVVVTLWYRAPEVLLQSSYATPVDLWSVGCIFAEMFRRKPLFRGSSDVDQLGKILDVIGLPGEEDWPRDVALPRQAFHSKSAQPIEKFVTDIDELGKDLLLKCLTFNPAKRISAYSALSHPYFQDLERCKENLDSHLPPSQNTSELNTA
Sequence of CDK6/Cyclin D3 (P30281 whole entry partner): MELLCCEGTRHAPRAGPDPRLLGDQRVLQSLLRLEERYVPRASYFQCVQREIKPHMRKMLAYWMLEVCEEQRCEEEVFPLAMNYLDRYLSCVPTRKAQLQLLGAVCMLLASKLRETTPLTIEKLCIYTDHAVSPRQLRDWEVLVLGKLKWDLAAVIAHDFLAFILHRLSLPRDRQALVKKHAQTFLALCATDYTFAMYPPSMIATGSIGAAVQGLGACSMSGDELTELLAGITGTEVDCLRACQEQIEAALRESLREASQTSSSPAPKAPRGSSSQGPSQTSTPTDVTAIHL
Outline: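 Luminescent ADP-Glo read-out of ADP produced, used to fit IC50 (4-parameter equation on fractional velocity against inhibitor concentration). Kinase reaction: enzyme and inhibitor together 30 min, then ATP-containing substrate added for 90 min, all at room temperature.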

[6] = target: CDK2/Cyclin E1 full length (Homo sapiens (Human), UniProt P24941); experiment: CDK2/Cyclin E1 Full Length ADP-Glo Kinase Assay; type: biochemical; details: 20 uM ATP, read-out: CDK2/ CyclinE1 IC50
Outline: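 ADP-Glo luminescence read-out of ADP formed by 0.328 nM wild-type full-length CDK2/Cyclin E1, 90 min at room temperature with 0.75 uM substrate and 20 uM ATP (Km 64.78 uM), after 30 min enzyme–inhibitor pre-incubation; 50 mM HEPES pH 7.5, 2% DMSO. Four-parameter IC50 fit.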

Structure (SMILES) | IC50 ([1]; Homo sapiens, MCF7, 144 h) | IC50 ([2]; Homo sapiens, 144 h) | IC50 [3] | IC50 [4] | IC50 [5] | IC50 [6] | IC50 [1] | IC50 [2]
CC1(CCS(=O)(=O)N2CCC(Nc3ncc4cc(C(F)F)cc(N5CC6(CCNC6)C5)c4n3)CC2)CC1 [Example 96, 6-(difluoromethyl)-N-(1-((2-(1-methylcyclopropyl)ethyl)sulfonyl)piperidin-4-yl)-8-(2,6-diazaspiro[3.4]octan-2-yl)quinazolin-2-amine] | 500 to 2000 nM | 500 to 2000 nM | < 200 nM | < 200 nM | < 200 nM | < 200 nM |  | 
FC(F)c1cc(N2CC3(CCNC3)C2)c2nc(Nc3ccc4c(c3)CN(C3CC3)C4)ncc2c1 [Example 82, N-(2-cyclopropylisoindolin-5-yl)-6-(difluoromethyl)-8-(2,6-diazaspiro[3.4]octan-2-yl)quinazolin-2-amine] | 500 to 2000 nM | > 2000 nM | 500 to 2000 nM | < 200 nM | < 200 nM | < 200 nM |  | 
CC1(CS(=O)(=O)N2CCC(Nc3ncc4cc(C(F)F)cc(N5CC6(CCNC6)C5)c4n3)CC2)CC1 [Example 95, 6-(difluoromethyl)-N-(1-(((1-methylcyclopropyl)methyl)sulfonyl)piperidin-4-yl)-8-(2,6-diazaspiro[3.4]octan-2-yl)quinazolin-2-amine] | 500 to 2000 nM | 500 to 2000 nM | < 200 nM | < 200 nM | < 200 nM | < 200 nM |  | 
CS(=O)(=O)N1CCC(Nc2ncc3cccc(C4CC5(CNCCO5)C4)c3n2)CC1 (stereo not drawn) [Example 110, N-(1-(methylsulfonyl)piperidin-4-yl)-8-(5-oxa-8-azaspiro[3.5]nonan-2-yl)quinazolin-2-amine] | 500 to 2000 nM | 500 to 2000 nM | < 200 nM | < 200 nM | < 200 nM | < 200 nM |  | 
CN1CC2(CCN(c3cc(C(F)F)cc4cnc(NC5CCN(S(=O)(=O)C6(C)CC6)CC5)nc34)C2)C1 [Example 83, 6-(difluoromethyl)-8-(2-methyl-2,6-diazaspiro[3.4]octan-6-yl)-N-(1-((1-methylcyclopropyl)sulfonyl)piperidin-4-yl)quinazolin-2-amine] | 500 to 2000 nM | 500 to 2000 nM | 200 to 500 nM | < 200 nM | < 200 nM | < 200 nM |  | 
CN1Cc2ccc(Nc3ncc4cc(C(F)F)cc(N5CCC6(CN(C)C6)C5)c4n3)cc2C1 [Example 66, 6-(difluoromethyl)-8-(2-methyl-2,6-diazaspiro[3.4]octan-6-yl)-N-(2-methylisoindolin-5-yl)quinazolin-2-amine] | 500 to 2000 nM | 500 to 2000 nM | 500 to 2000 nM | < 200 nM | < 200 nM | < 200 nM |  | 
COCCN1CC2(CC(c3cc(C(F)F)cc4cnc(NC5CCN(S(C)(=O)=O)CC5)nc34)C2)C1 [Example 89, 6-(difluoromethyl)-8-(2-(2-methoxyethyl)-2-azaspiro[3.3]heptan-6-yl)-N-(1-(methylsulfonyl)piperidin-4-yl)quinazolin-2-amine] | 200 to 500 nM | < 200 nM | < 200 nM | < 200 nM | < 200 nM | < 200 nM |  | 
CN1Cc2cc(F)c(Nc3ncc4cc(C(F)F)cc(N5CC6(CNC6)C5)c4n3)cc2C1 [Example 61, 6-(difluoromethyl)-N-(6-fluoro-2-methylisoindolin-5-yl)-8-(2,6-diazaspiro[3.3]heptan-2-yl)quinazolin-2-amine] | > 2000 nM | > 2000 nM | 500 to 2000 nM | 200 to 500 nM | 500 to 2000 nM | < 200 nM |  | 
COCCN1CC2(C1)CN(c1cc(C(F)F)cc3cnc(NC4CCN(S(=O)(=O)C5CC5)CC4)nc13)C2 [Example 76, N-(1-(cyclopropylsulfonyl)piperidin-4-yl)-6-(difluoromethyl)-8-(6-(2-methoxyethyl)-2,6-diazaspiro[3.3]heptan-2-yl)quinazolin-2-amine] | 500 to 2000 nM | 500 to 2000 nM | 500 to 2000 nM | < 200 nM | < 200 nM | < 200 nM |  | 
CN1CC2(CCN(c3cc(C(F)F)cc4cnc(NC5CCN(S(C)(=O)=O)CC5)nc34)C2)C1 [Example 62, 6-(difluoromethyl)-8-(2-methyl-2,6-diazaspiro[3.4]octan-6-yl)-N-(1-(methylsulfonyl)piperidin-4-yl)quinazolin-2-amine] | < 200 nM | 500 to 2000 nM | 200 to 500 nM | < 200 nM | < 200 nM | < 200 nM |  | 

Next, values leading:

IC50 ([1]; Homo sapiens, MCF7, 144 h) | IC50 ([2]; Homo sapiens, 144 h) | IC50 [3] | IC50 [4] | IC50 [5] | IC50 [6] | IC50 [1] | IC50 [2] | Structure (SMILES)
200 to 500 nM | 200 to 500 nM | < 200 nM | < 200 nM | < 200 nM | < 200 nM |  |  | O=S(=O)(C1CC1)N1CCC(Nc2ncc3cc(C(F)F)cc(N4CC5(CNCC5F)C4)c3n2)CC1 (stereo not drawn) [Example 104, N-(1-(cyclopropylsulfonyl)piperidin-4-yl)-6-(difluoromethyl)-8-(8-fluoro-2,6-diazaspiro[3.4]octan-2-yl)quinazolin-2-amine]
500 to 2000 nM | 500 to 2000 nM | < 200 nM | < 200 nM | < 200 nM | < 200 nM |  |  | CS(=O)(=O)N1CCC(Nc2ncc3cc(C(F)F)cc(N4CC5(CNCC5(F)F)C4)c3n2)CC1 [Example 115, 8-(8,8-difluoro-2,6-diazaspiro[3.4]octan-2-yl)-6-(difluoromethyl)-N-(1-(methylsulfonyl)piperidin-4-yl)quinazolin-2-amine]
200 to 500 nM | < 200 nM | < 200 nM | < 200 nM | < 200 nM | < 200 nM |  |  | O=S(=O)(N1CCC(Nc2ncc3cc(C(F)F)cc(C4CC5(CCNC5)C4)c3n2)CC1)C1(C(F)F)CC1 (stereo not drawn) [Example 91, 6-(difluoromethyl)-N-(1-((1-(difluoromethyl)cyclopropyl)sulfonyl)piperidin-4-yl)-8-(6-azaspiro[3.4]octan-2-yl)quinazolin-2-amine]
500 to 2000 nM | > 2000 nM | < 200 nM | < 200 nM | < 200 nM | < 200 nM |  |  | CS(=O)(=O)N1Cc2ccc(Nc3ncc4cc(C(F)F)cc(N5CC6(C5)CN(C5CC5)C6)c4n3)cc2C1 [Example 72, 8-(6-cyclopropyl-2,6-diazaspiro[3.3]heptan-2-yl)-6-(difluoromethyl)-N-(2-(methylsulfonyl)isoindolin-5-yl)quinazolin-2-amine]
500 to 2000 nM | 500 to 2000 nM | 200 to 500 nM | < 200 nM | < 200 nM | < 200 nM |  |  | CN1CCC2(C1)CN(c1cc(C(F)F)cc3cnc(NC4CCN(S(=O)(=O)C5CC5)CC4)nc13)C2 [Example 81, N-(1-(cyclopropylsulfonyl)piperidin-4-yl)-6-(difluoromethyl)-8-(6-methyl-2,6-diazaspiro[3.4]octan-2-yl)quinazolin-2-amine]
200 to 500 nM | 200 to 500 nM | < 200 nM | < 200 nM | < 200 nM | < 200 nM |  |  | CS(=O)(=O)N1CCC(Nc2ncc3cc(C(F)F)cc(C4CC5(CCN(C6COC6)C5)C4)c3n2)CC1 (stereo not drawn) [Example 102, 6-(difluoromethyl)-N-(1-(methylsulfonyl)piperidin-4-yl)-8-(6-(oxetan-3-yl)-6-azaspiro[3.4]octan-2-yl)quinazolin-2-amine]
 |  | > 2000 nM | 200 to 500 nM | 500 to 2000 nM | 500 to 2000 nM | > 2000 nM | > 2000 nM | CN1CC(n2cc(Nc3ncc4cc(C(F)F)cc(N5CC6(CN(C)C6)C5)c4n3)cn2)C1 [Example 59, 6-(difluoromethyl)-8-(6-6-methyl-2,6-diazaspiro[3.3]heptan-2-yl)-N-(1-(1-methylazetidin-3-yl)-1H-pyrazol-4-yl)quinazolin-2-amine]
200 to 500 nM | 200 to 500 nM | < 200 nM | < 200 nM | < 200 nM | < 200 nM |  |  | O=S(=O)(N1CCC(Nc2ncc3cc(C(F)F)cc(N4CCC5(CNC5)C4)c3n2)CC1)C1(C(F)F)CC1 [Example 88, 6-(difluoromethyl)-N-(1-((1-(difluoromethyl)cyclopropyl)sulfonyl)piperidin-4-yl)-8-(2,6-diazaspiro[3.4]octan-6-yl)quinazolin-2-amine]

— US20240092761A1, “QUINAZOLINE COMPOUNDS AND METHODS OF USE” (IAMBIC THERAPEUTICS, INC., priority 2022, published 2024)
